What follows are compounds tested against T1, 5HTR2B (Homo sapiens, UniProt P41595) (assay: 5HTR2B antagonist activity, calcium mobilization assay in human Maverick/293 cells (serotonin as agonist)). Conditions: intracellular calcium, emission 525 nm, read-out: Ca assay IC50.
T1 construct: host or cells: human Maverick/293 cells
T1 sequence (P41595 whole entry): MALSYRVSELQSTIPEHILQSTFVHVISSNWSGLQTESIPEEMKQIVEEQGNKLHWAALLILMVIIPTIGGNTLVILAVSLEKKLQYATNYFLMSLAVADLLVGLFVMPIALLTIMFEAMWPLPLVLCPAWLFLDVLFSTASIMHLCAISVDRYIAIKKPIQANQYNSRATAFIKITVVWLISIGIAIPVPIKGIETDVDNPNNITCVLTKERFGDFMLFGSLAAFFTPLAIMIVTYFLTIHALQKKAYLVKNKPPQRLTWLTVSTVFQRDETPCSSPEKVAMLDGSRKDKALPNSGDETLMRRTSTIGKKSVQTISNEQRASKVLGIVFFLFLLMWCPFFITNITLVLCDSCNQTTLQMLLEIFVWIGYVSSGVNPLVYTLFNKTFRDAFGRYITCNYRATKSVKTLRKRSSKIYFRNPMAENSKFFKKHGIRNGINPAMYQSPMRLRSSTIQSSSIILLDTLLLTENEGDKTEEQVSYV
Format: cell-based
Method: The 5HTR2B antagonist activity was measured using human Maverick/293 cells in a calcium mobilization assay. The measurement starting with plating human Maverick/293 cells (log phase) onto 96-well black and incubate at 37° C. overnight, Followed by starving cells for 2 h by changing complete medium to DMEM without FBS, removing the medium from the 96-well plate. Loading staining calcium buffer into each well and incubated the plate at 37° C. for 50 min. After removal of staining calcium buffer, diluted antagonist were added into the well, incubate 15 to 30 minutes. Dispense serotonin as the 5HTR2B agonists into each well. Intracellular calcium concentration is recorded for 80 seconds by monitoring an emission at a wavelength of 525 nm with an excitation wavelength of 485 nm. Inhibition efficiency of the cell line was determined following the equation: % Inhibition=100%−(D−B)/(S−B)*100%. (S: The peak value in the presence of agonist serotonin; D: The peak value in the presence of different dilution compound or serotonin; B: The peak value in the presence of calcium HBSS buffer only). […] A dose response curve was fitted using nonlinear regression model with a sigmoidal dose response. The IC50 was automatically produced by GraphPad Prism 5.0.
With `COc1ccc(S(=O)(=O)NC2(C)COC2)cc1C(=O)Nc1ccc(F)c(C(F)F)c1` [Compound 36, N-(3-(Difluoromethyl)-4-fluorophenyl)-2-methoxy-5-(N-(3-methyloxetan-3-yl)sulfamoyl)benzamide] the IC50 was 2.7 nM. `COc1ccc(S(=O)(=O)NC2(CO)COC2)cc1C(=O)Nc1ccc(F)c(C)c1` [Compound 13, N-(4-Fluoro-3-methylphenyl)-5-(N-(3-(hydroxymethyl)oxetan-3-yl)sulfamoyl)-2-methoxybenzamide] gave an IC50 of 66.3 nM. `[2H]C([2H])([2H])Oc1ccc(S(=O)(=O)N[C@H]2CCOC2)cc1C(=O)Nc1ccc(F)c(C2CC2)n1` [Compound 195, (S)—N-(6-cyclopropyl-5-fluoropyridin-2-yl)-2-(methoxy-d3)-5-(N-(tetrahydrofuran-3-yl)sulfamoyl)benzamide] showed an IC50 of 0.9 nM. `COc1ccc(S(=O)(=O)N[C@H]2CCOC2)cc1C(=O)Nc1nc(C)c(F)c(Cl)n1` [Compound 171, (S)—N-(4-chloro-5-fluoro-6-methylpyrimidin-2-yl)-2-methoxy-5-(N-(tetrahydrofuran-3-yl)sulfamoyl)benzamide] gave an IC50 of 106 nM. `COc1ccc(S(=O)(=O)N[C@H]2CCC[C@H]2O)cc1C(=O)Nc1ccccc1Cl` [Compound 61a, N-(2-Chlorophenyl)-5-(N-((1s,2r)-2-hydroxycyclopentyl)sulfamoyl)-2-methoxy benzamide] showed an IC50 of 0.1 nM. With `COc1ccc(S(=O)(=O)N[C@H]2CCOC2)cc1C(=O)Nc1ccccc1C#N` [Compound 164] the IC50 was 1.1 nM. Work on `COc1ccc(S(=O)(=O)N[C@H]2CCOC2)cc1C(=O)Nc1ccc(F)c(C(F)F)c1` [Compound 167, (S)—N-(3-(Difluoromethyl)-4-fluorophenyl)-2-methoxy-5-(N-(tetrahydrofuran-3-yl)sulfamoyl)benzamide] yielded an IC50 of 0.32 nM. For `COc1ccc(S(=O)(=O)N[C@H]2CCOC2)cc1C(=O)Nc1ccccc1C` [Compound 163, (S)-2-Methoxy-5-(N-(tetrahydrofuran-3-yl)sulfamoyl)-N-(o-tolyl)benzamide], the IC50 was 0.9 nM. With `COc1ccc(S(=O)(=O)N[C@@H]2CC[C@H](O)C2)cc1C(=O)Nc1ccc(F)c(C)c1` (single isomer, unassigned) [Compound 15b, N-(4-Fluoro-3-methylphenyl)-5-(N-((cis)-3-hydroxycyclopentyl)sulfamoyl)-2-methoxybenzamide] the IC50 was 1 nM. With `COc1ccc(S(=O)(=O)N[C@H]2CCOC2)cc1C(=O)Nc1ncc(F)cn1` [Compound 117, (S)—N-(5-Fluoropyrimidin-2-yl)-2-methoxy-5-(N-(tetrahydrofuran-3-yl)sulfamoyl)benzamide] the IC50 was 64 nM. In the case of `COc1ccc(S(=O)(=O)NC2COC2)cc1C(=O)Nc1ccccc1Cl` [Compound 62, N-(2-Chlorophenyl)-2-methoxy-5-(N-(oxetan-3-yl)sulfamoyl)benzamide], the IC50 is reported as 0.1 nM. In the case of `COc1ccc(S(=O)(=O)N[C@H]2CCOC2)cc1C(=O)Nc1ccc(C)cc1` [Compound 129, (S)-2-Methoxy-5-(N-(tetrahydrofuran-3-yl)sulfamoyl)-N-(p-tolyl)benzamide], the IC50 is reported as 12 nM. For `COc1ccc(S(=O)(=O)N[C@H]2CCOC2)cc1C(=O)Nc1ccc(C#N)c(Cl)c1` [Compound 89, (S)—N-(3-Chloro-4-cyanophenyl)-2-methoxy-5-(N-(tetrahydrofuran-3-yl)sulfamoyl)benzamide], the IC50 was 1950 nM. With `COc1ccc(S(=O)(=O)NC2CC[C@H](O)C2)cc1C(=O)Nc1ccc(F)c(C)c1` (stereo in doubt) [Compound 15a, N-(4-Fluoro-3-methylphenyl)-5-(N-((cis)-3-hydroxycyclopentyl)sulfamoyl)-2-methoxybenzamide] the IC50 was 2 nM. Work on `COc1ccc(S(=O)(=O)N[C@H]2CCN(C)C2)cc1C(=O)Nc1ccc(F)c(C)n1` [Compound 176, (S)—N-(5-Fluoro-6-methylpyridin-2-yl)-2-methoxy-5-(N-(1-methylpyrrolidin-3-yl)sulfamoyl)benzamide] yielded an IC50 of 5 nM. In the case of `COc1ccc(S(=O)(=O)NCC(O)C(F)(F)F)cc1C(=O)Nc1ccc(F)cc1` (single isomer, unassigned) [Compound 44b, (R*)—N-(4-Fluorophenyl)-2-methoxy-5-(N-(3,3,3-trifluoro-2-hydroxypropyl)sulfamoyl)benzamide], the IC50 is reported as 3.2 nM. With `CCOc1ccccc1NC(=O)c1cc(S(=O)(=O)N[C@H]2CCOC2)ccc1OC` [Compound 136, (S)—N-(2-ethoxyphenyl)-2-methoxy-5-(N-(tetrahydrofuran-3-yl)sulfamoyl) benzamide] the IC50 was 0.4 nM. `COc1ccc(S(=O)(=O)N[C@@H](C)C(N)=O)cc1C(=O)Nc1ccc(F)cc1` [Compound 46b, (S)-5-(N-(1-Amino-1-oxopropan-2-yl)sulfamoyl)-N-(4-fluorophenyl)-2-methoxybenzamide] gave an IC50 of 1.8 nM. Work on `COc1ccc(S(=O)(=O)N[C@H]2CCOC2)cc1C(=O)Nc1cc(Cl)ccc1Cl` [Compound 71, (S)—N-(2,5-Dichlorophenyl)-2-methoxy-5-(N-(tetrahydrofuran-3-yl)sulfamoyl)benzamide] yielded an IC50 of 1.6 nM. For `COc1ccc(S(=O)(=O)N[C@H]2CCOC2)cc1C(=O)Nc1ccc(OC(F)F)cc1` [Compound 106, (S)—N-(4-(Difluoromethoxy)phenyl)-2-methoxy-5-(N-(tetrahydrofuran-3-yl)sulfamoyl)benzamide], the IC50 was 596 nM. `[2H]C([2H])([2H])Oc1ccc(S(=O)(=O)N[C@H]2CCOC2)cc1C(=O)Nc1ccc(F)c(C)n1` [Compound 194, (S)—N-(5-fluoro-6-methylpyridin-2-yl)-2-(methoxy-d3)-5-(N-(tetrahydrofuran-3-yl)sulfamoyl)benzamide] was tested, and the IC50 was 1.1 nM. For `COc1ccc(S(=O)(=O)N[C@H]2CCOC2)cc1C(=O)Nc1ccc(F)c(C)n1` [Compound 2], the IC50 was 0.6 nM. Work on `COc1ccc(S(=O)(=O)NC2CCN(C)CC2)cc1C(=O)Nc1ccc(F)c(C)n1` [Compound 19, N-(5-Fluoro-6-methylpyridin-2-yl)-2-methoxy-5-(N-(1-methylpiperidin-4-yl)sulfamoyl)benzamide] yielded an IC50 of 173 nM. For `COc1ccc(S(=O)(=O)N[C@H]2CCOC2)cc1C(=O)Nc1cccc(C#N)c1` [Compound 102, (S)—N-(3-cyanophenyl)-2-methoxy-5-(N-(tetrahydrofuran-3-yl)sulfamoyl) benzamide], the IC50 was 435 nM. For `COc1ccc(S(=O)(=O)N[C@H]2CCOC2)cc1C(=O)Nc1ccc(F)c(C)c1` [Compound 4, (S)—N-(4-Fluoro-3-methylphenyl)-2-methoxy-5-(N-(tetrahydrofuran-3-yl)sulfamoyl)benzamide], the IC50 was 0.7 nM. `COc1ccc(S(=O)(=O)N[C@H]2CCOC2)cc1C(=O)Nc1c(F)cc(Cl)cc1F` [Compound 91, (S)—N-(4-Chloro-2,6-difluorophenyl)-2-methoxy-5-(N-(tetrahydrofuran-3-yl)sulfamoyl)benzamide] showed an IC50 of 92 nM. In the case of `COc1ccc(S(=O)(=O)N[C@H]2C[C@H](O)C2)cc1C(=O)Nc1ccc(F)cc1F` [Compound 145a, N-(2,4-difluorophenyl)-5-(N-((trans)-3-hydroxycyclobutyl)sulfamoyl)-2-methoxybenzamide], the IC50 is reported as 2.5 nM. `COc1ccc(S(=O)(=O)NC2CCC[C@H]2O)cc1C(=O)Nc1ccccc1Cl` (stereo partly drawn) [Compound 61c, N-(2-chlorophenyl)-5-(N-((trans)-2-hydroxycyclopentyl)sulfamoyl)-2-methoxy benzamide] gave an IC50 of 0.2 nM. `COc1ccc(S(=O)(=O)N[C@H]2CCOC2)cc1C(=O)Nc1ccc(Cl)cc1Cl` [Compound 85, (S)—N-(2,4-Dichlorophenyl)-2-methoxy-5-(N-(tetrahydrofuran-3-yl)sulfamoyl) benzamide] showed an IC50 of 1.5 nM. `COc1ccc(S(=O)(=O)N[C@H]2CCNC2)cc1C(=O)Nc1ccc(F)cc1F` [Compound 182] was tested, and the IC50 was 0.3 nM. For `COc1ccc(S(=O)(=O)N[C@H]2CCOC2)cc1C(=O)Nc1ccc(F)c(C#N)c1` [Compound 95, (S)—N-(3-Cyano-4-fluorophenyl)-2-methoxy-5-(N-(tetrahydrofuran-3-yl)sulfamoyl)benzamide], the IC50 was 648 nM. With `COc1ccc(S(=O)(=O)NC2CC(C)(C)C2)cc1C(=O)Nc1ccc(F)c(C)c1` [Compound 14, 5-(N-(3,3-Dimethylcyclobutyl)sulfamoyl)-N-(4-fluoro-3-methylphenyl)-2-methoxybenzamide] the IC50 was 14.6 nM. In the case of `COc1ccc(S(=O)(=O)N2CCCC2)cc1C(=O)Nc1ccc(F)c(C)n1` [Compound 30, N-(5-Fluoro-6-methylpyridin-2-yl)-2-methoxy-5-(pyrrolidin-1-ylsulfonyl) benzamide], the IC50 is reported as 24 nM. With `COc1ccc(S(=O)(=O)N[C@H]2C[C@H](O)C2)cc1C(=O)Nc1cc(F)ccc1Cl` [Compound 146a, N-(2-chloro-5-fluorophenyl)-5-(N-((trans)-3-hydroxycyclobutyl)sulfamoyl)-2-methoxybenzamide] the IC50 was 0.8 nM. Work on `COc1ccc(S(=O)(=O)N[C@H]2CCOC2)cc1C(=O)Nc1c(F)cc(F)cc1Cl` [Compound 78, (S)—N-(2-Chloro-4,6-difluorophenyl)-2-methoxy-5-(N-(tetrahydrofuran-3-yl)sulfamoyl)benzamide] yielded an IC50 of 2.4 nM. `COc1ccc(S(=O)(=O)NC2CCCCC2)cc1C(=O)Nc1ccc(F)c(C)n1` [Compound 20, 5-(N-Cyclohexylsulfamoyl)-N-(5-fluoro-6-methylpyridin-2-yl)-2-methoxy benzamide] showed an IC50 of 4.4 nM. `COc1ccc(S(=O)(=O)N[C@H]2C[C@H](O)C2)cc1C(=O)Nc1cccc(C)c1Cl` [Compound 140a, N-(2-Chloro-3-methylphenyl)-5-(N-((trans)-3-hydroxycyclobutyl)sulfamoyl)-2-methoxybenzamide] was tested, and the IC50 was 3.9 nM.
